Results reported in patent publication US20250154457A1, “T-CELLS FOR ANTI-HIV CAR-T THERAPY AND METHODS OF USE” (City of Hope, priority 2021, published 2025).

Key:
Type in all cases: cell-based
[1] = tested on: Jurkat cells; test: 6TG selection of shHPRT-N6 CAR expressing Jurkat cells; details: Jurkat cells, 0, 1, or 3 uM 6TG for four days, trypan blue
Protocol: (§1) FIGS. 2A-2D. 6TG selection of HPRT repressed CAR T-cells. FIG. 2A. Quantitative PCR analysis of HPRT expression following transfection of shHPRT plasmid. Untransfected Jurkat cells were used as a control. FIG. 2B. N6 CAR (control) or shHPRT-N6 CAR were transduced into Jurkat cells and co-cultured with either gp120 expressing HEK293 cells or HEK293 parental cells for 24 hours. Following incubation, the Jurkat cells were analyzed for CD69 expression by flow cytometry. FIG. 2C.

[2] = tested on: T-cells; test: 6TG dose titration and multi-dosing selection of enrichment anti-HIV CAR T-cells
Protocol: The cell counts of the T-cells, in addition to anti-HIV CAR expression percentage were measured over the course of culturing.

[3] = tested on: T-cells; test: Growth and phenotype of enrichment anti-HIV CAR T-cells after 6TG selection
[4] = tested on: gp160-expressing HEK293 cells; test: CD69 activation of 6TG enriched anti-HIV CAR Jurkat cells co-cultured with gp160-expressing HEK293 cells; details: 24 hour incubation, 6TG selected vs unselected anti-HIV CAR Jurkat cells
Protocol: Following a 24 hour incubation, CD69 expression was analyzed.

[5] = tested on: HPRT; test: Quantitative PCR of HPRT expression after transfection of shHPRT plasmid in Jurkat cells; details: transfected with shHPRT plasmid, FIG. 2A
Protocol: as §1

[6] = tested on: CCR5; test: CCR5 knockdown in Magi.CCR5 reporter cells (PCR and flow cytometry)
Excerpt: FIGS. 5A-5C. Wobble base CCR5 shRNAs functionality. FIG. 5A. Quantitative PCR analysis of MAGI.CCR5 cells transduced with protection CAR (shCCR5w shTat/Rev anti-HIV CAR), compared to mock-transduced cells and cells transduced with conventional anti-HIV CAR without the shRNA. Decreased levels of CCR5 mRNA indicate successful knock-down using the protection CAR. FIG. 5B. CCR5 surface expression on MAGI.CCR5 cells transduced with the protection CAR compared to CCR5 expression on mock-transduced cells and on cells transduced with anti-HIV CAR without the shRNA. FIG. 5C. CCR5 surface expression on T-cells transduced with protection CAR (shCCR5w shTat/Rev anti-HIV CAR), compared to mock-transduced cells and cells transduced with conventional anti-HIV CAR without the shRNA. Decreased levels of CCR5 are indicative of successful knockdown using anti-CCR5 shRNA.
Next, Applicant determined whether the shRNAs were functional. To test the shCCR5, Applicant transfected the protection and conventional CAR into Magi reporter line expressing CCR5 (Magi.CCR5). […] To confirm knock-down of CCR5, Applicant transduced T-cells with protection and conventional anti-HIV CAR constructs and analyzed CCR5 surface expression.

## Nc1nc(=S)c2[nH]cnc2[nH]1 [6TG, 6-thioguanine]
[1]
  cell counts and viability after 6TG: eliminates cells that lack the anti-HPRT shRNA
[2]; 50 nM 6TG, single dose titration
  enrichment of anti-HIV CAR T-cells at 50 nM: most enrichment potential
[2]; 100 nM 6TG
  effect on cell counts at 100 nM: loss of a number of T-cells transduced with the enrichment anti-HIV CAR construct
[2]; 6TG, data not shown
  effect on cells at 1 M 6TG: loss of all T-cells
[2]; 10, 20, and 50 nM 6TG
  effect on cell counts at 10, 20, and 50 nM: exerted toxic effects on the non-transduced T-cells
[2]; without impacting growth
  optimized dose of 6TG to enrich CAR T-cells: 50 nM
[3]; 6TG-treated vs not subjected to 6TG
  growth of anti-HIV CAR T-cells: equivalent
[3]; after treatment with 6TG
  total T-cell growth: decreased over the course of culture
[3]; following 6TG treatment
  exhaustion markers (PD-1, Tim3, Lag-3): No noticeable changes
[4]
  activation as assessed by CD69 levels: decrease in activation

## anti-HPRT shRNA: shRNA that downregulates expression of the HPRT gene, SEQ ID NO:12 (GCACUGAAUAGAAAUGGUGGUUCAAGAGAUCACUAUUUCUAUUCAGUGCUU)
[5]
  HPRT expression: robustly repressed

## shCCR5w: anti-CCR5 shRNA wobble base, SEQ ID NO: 11 (AGUGUCAAGUCCAAUUUGUGGUUCAAGAGAUCAUAGAUUGGACUUGACACUUU)
[6]
  CCR5 knockdown: successful in knocking down CCR5
